Results reported in patent publication EP4527828A1, “BIPHENYL COMPOUND, PHARMACEUTICAL COMPOSITION, METHOD FOR PREPARING SAME, AND USE THEREOF” (Longivitron (Suzhou) Biotechnology Co., Ltd, priority 2022, dated 2023).
Where two headings read alike, the source gives them in different places.

Columns and labels:
[1] = target: T1, LAG3/MHCII (Homo sapiens, UniProt P18627); experiment: HTRF binding inhibition of LAG3 and its ligand MHCII; conditions: binding inhibition LAG3/MHCII
T1 sequence (P18627 23-450 limits assumed): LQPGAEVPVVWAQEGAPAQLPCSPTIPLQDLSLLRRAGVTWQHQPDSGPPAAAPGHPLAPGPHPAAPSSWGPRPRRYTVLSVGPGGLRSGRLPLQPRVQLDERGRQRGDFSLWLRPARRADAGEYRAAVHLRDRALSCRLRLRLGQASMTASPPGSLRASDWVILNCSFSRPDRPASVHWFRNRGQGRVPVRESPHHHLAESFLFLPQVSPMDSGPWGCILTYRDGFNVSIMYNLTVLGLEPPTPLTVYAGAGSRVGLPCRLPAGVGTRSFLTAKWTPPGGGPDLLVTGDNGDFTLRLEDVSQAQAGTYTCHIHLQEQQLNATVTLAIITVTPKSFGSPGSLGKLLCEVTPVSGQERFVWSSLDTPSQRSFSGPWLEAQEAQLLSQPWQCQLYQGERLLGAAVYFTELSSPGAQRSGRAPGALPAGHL
Protocol: HTRF (Homogeneous time-resolved fluorescence) is based on two techniques, fluorescence resonance energy transfer (FRET) and time-resolved fluorescence (TRF). The detection was carried out using a 384-well plate. 2 µL of a compound to be tested with an appropriate concentration was collected, 4 µL of Tag1-LAG3 protein (with a final concentration of 10 nmol·L^-1) was added, 4 µL of Tag2-MHCII (with a final concentration of 20 nmol·L^-1) was added, and the plate was incubated at room temperature for 15 min. 10 µL of Anti-Tag1-Tb working solution (prepared by adding 25 µL of Anti-Tag1-Tab mother solution to 2475 µL of dilution buffer) was added, 10 µL of Anti-Tag2-XL665 working solution (prepared by adding 25 µL of Tag2-XL665 mother solution to 2475 µL of dilution buffer) was added, and the plate was sealed with a film and incubated at room temperature for 1 h. The detection was carried out using a Perkin Elma Envision instrument.

[2] = target: T2, LAG3/FGL1 (Homo sapiens, UniProt P18627); experiment: HTRF binding inhibition of LAG3 and its ligand FGL1; conditions: binding inhibition LAG3/FGL1; read-out: IC50
T2 sequence (P18627 23-450 limits assumed): T1 sequence (P18627 23-450 limits assumed)
Protocol: Reagent preparation: ① Tag1-LAG3 protein: a protein solution with a concentration of 50 nM (20 µL with a final system concentration of 10 nM) was prepared using a diluent. ② Tag2-FGL1 protein: a protein solution with a concentration of 100 nM (20 µL with a final system concentration of 20 nM) was prepared using a diluent. ③ Anti-Tag1-Tb: a 100× stock solution was diluted with a detection buffer to a 1 × stock solution. ④ Anti-Tag2-XL665: a 100× stock solution was diluted with a detection buffer to a 1 × stock solution.
Assay step: (1) 2 µL of compound solution (with a concentration to be measured of 10×) was added to a 384-well opaque plate having a white background, 4 µL of Tag1-LAG3 protein and 4 µL of Tag2-FGL1 protein were added, respectively, and the plate was incubated at room temperature for 15 min; (2) Anti-Tag1-Tb and Anti-Tag2-XL665 were mixed at a ratio of 1:1 in advance, and 10 µL of mix solution was added to each well; (3) the plate was gently mixed, sealed, and incubated at room temperature for 1 h or overnight before detection.

[3] = tested on: mouse liver cancer HEPA1-6; type: in vivo; conditions: HEPA1-6, 100 mg/kg ip once, after 27 days of administration
Protocol: (1) 32 8-week-old female C57L mice were selected and divided into 5 cages. HEPA1-6 cells cultured with DMEM + 10% FBS in vitro were washed with PBS and digested with 0.25% trypsin for 3 min. The digestion was terminated with a serum-containing medium, the cells were centrifuged at 2500 rpm for 5 min, the supernatant was discarded, and the cells were resuspended with an appropriate amount of PBS twice. The number of cells was 1.14 × 10^7 cells/mL as counted with a BioRad counting instrument. The cell suspension was placed in an Erlenmeyer flask in an ice bath for later use. The tumor fluid was evenly aspirated using a 1 mL sterile syringe and inoculated 0.2 mL/mouse. After the inoculation was completed, the mice continued to be fed under the initial feeding conditions.
(2) Animal grouping: On the second day after tumor fluid inoculation of C57B/L mice, 32 mice were randomly grouped: 8 mice in a control group, 6 mice in a Compound 4-5 mg/kg group, 6 mice in a Compound 4-10 mg/kg group, 6 mice in a Compound 4-20 mg/kg group, and 6 mice in a positive control drug cyclophosphamide (CTX)-100 mg/kg group. The drug test groups were given the drugs to be tested orally once a day, and the positive control drug CTX was injected intraperitoneally once. The mice were weighed and administered daily.
(3) Drug preparation: The corresponding amounts of the drugs to be tested were weighed according to the final concentrations of the experimental groups. The drugs of the Compound 4-5 mg/kg group, the Compound 4-10 mg/kg group, and the Compound 4-20 mg/kg group were prepared with 5% CMCNa + Tween 80, and CTX was prepared with normal saline. The mice in the control group were given 5% CMCNa solution orally. The dosages were as follows: 0.4 mL/20 g body weight of the animal for intragastric administration, and 0.2 mL/20 g body weight of the animal for intraperitoneal injection.
(4) The animals were sacrificed, and the tumors were separated and weighed. The animals in each group were treated immediately 1 h after administration on the last day and weighed, and the tumor tissue was separated and weighed.

[4] = tested on: mouse melanoma B16F10; type: in vivo; conditions: B16F10, Table 6, 100 mg/kg ip once, after 15 days of administration
Protocol: (§1) (1) 43 8-week-old female C57B/L mice were selected and divided into 5 cages. One preserved B16F10 tumor-bearing female C57L mouse was sacrificed by cervical dislocation. 75% alcohol was sprayed on the skin of the mouse in a laminar flow cabinet, and the tumor tissue of the tumor-bearing mouse was separated by sterilized surgical instruments and cut into a sterilized 5 mL homogenizer with ophthalmic scissors. The tumor tissue was slowly milled on ice to form a tumor fluid. The number of cells was 6.85 × 10^7 cells/mL as counted with a BioRad counting instrument. The tumor fluid was placed in an Erlenmeyer flask in an ice bath for later use. The tumor fluid was evenly aspirated using a 1 mL sterile syringe and inoculated 0.2 mL/C57/L mouse. After the inoculation was completed, the mice continued to be fed under the initial feeding conditions.
(2) Animal grouping and administration: On the second day after tumor fluid inoculation of C57B/L mice, 43 mice were randomly grouped: 10 mice in a control group, 8 mice in a Compound 4-20 mg/kg group, 8 mice in a Compound 4-30 mg/kg group, 8 mice in a Compound 4-40 mg/kg group, and 9 mice in a positive control drug cyclophosphamide CTX-100 mg/kg group. The mice were weighed and administered.
(3) Drug preparation: The corresponding amounts of the drugs were weighed according to the final concentrations of the experimental groups. The drugs of the Compound 4-20 mg/kg group and the Compound 4-30 mg/kg group were prepared with 0.25% CMCNa + Tween 80 and administered orally once a day. The drug of Compound 4-40 mg/kg was prepared with normal saline + Tween 80 and administered intraperitoneally. CTX was prepared with normal saline and administered intraperitoneally once. The mice in the control group were given 0.25% CMCNa solution orally.
(§2) (4) The animals were sacrificed, and the tumors were separated and weighed. The animals in each group were treated immediately 1 h after administration on the last day and weighed, and the tumor tissue was weighed.

[5] = tested on: mouse melanoma B16F10; type: in vivo; conditions: B16F10, Table 7, 100 mg/kg intraperitoneally once
Protocol: as §1, §2
Animal grouping and administration: On the second day after tumor fluid inoculation of C57B/L mice, tumor-bearing mice were randomly grouped: a control group, a Compound 8-5 mg/kg group, a Compound 8-10 mg/kg group, a Compound 8-20 mg/kg group, and a positive control drug cyclophosphamide CTX-100 mg/kg group. The animals were weighed and administered daily. The drugs to be tested were administered orally daily, and the positive control drug CTX was administered intraperitoneally once. After the experiment was completed, the body weights and tumor weights of the animals were weighed, and the tumor weight inhibition rate (%) was calculated.

In the case of `CCCCCCOc1ccc(C(=O)NCCCCNC(=O)C(F)(F)F)cc1-c1cc(C(=O)NCCCCNC(=O)C(F)(F)F)ccc1OCCCCCC` [Compound 13], the IC50 [1] is reported as 4.01 µM and the IC50 [2] is reported as 46 µM.
`O=P1(N(CCCl)CCCl)NCCCO1` (centres unmarked) [CTX, cyclophosphamide, reference compound] was tested, and the Inhibition rate [3] was -18.65%, the Tumor weight [3] was 0.804 ± 0.459 g and the Inhibition rate [4] was 61.20%. For the same molecule, the Tumor weight [4] was 1.128 ± 0.394 g, the Inhibition rate [5] was 82.93% and the Tumor weight [5] was 0.30 ± 0.10 g.
